Assay results reported in ChEMBL document CHEMBL2321687, “Identification of a novel arylpiperazine scaffold for fatty acid amide hydrolase inhibition with improved drug disposition properties” (Bioorg Med Chem Lett, 2013).
pIC50, pKi: −log10 of the molar value. Activity calls are given as the source filed them. No cut-off for these calls is given here.

Experiments:
[1] = target: T1, Fatty-acid amide hydrolase 1 (Homo sapiens, UniProt O00519); assay: Inhibition of human FAAH using [3Hethanolamine]AEA as substrate incubated for 20 mins prior to substrate addition measured after 15 mins by beta counting analysis
T1 sequence (O00519 whole entry): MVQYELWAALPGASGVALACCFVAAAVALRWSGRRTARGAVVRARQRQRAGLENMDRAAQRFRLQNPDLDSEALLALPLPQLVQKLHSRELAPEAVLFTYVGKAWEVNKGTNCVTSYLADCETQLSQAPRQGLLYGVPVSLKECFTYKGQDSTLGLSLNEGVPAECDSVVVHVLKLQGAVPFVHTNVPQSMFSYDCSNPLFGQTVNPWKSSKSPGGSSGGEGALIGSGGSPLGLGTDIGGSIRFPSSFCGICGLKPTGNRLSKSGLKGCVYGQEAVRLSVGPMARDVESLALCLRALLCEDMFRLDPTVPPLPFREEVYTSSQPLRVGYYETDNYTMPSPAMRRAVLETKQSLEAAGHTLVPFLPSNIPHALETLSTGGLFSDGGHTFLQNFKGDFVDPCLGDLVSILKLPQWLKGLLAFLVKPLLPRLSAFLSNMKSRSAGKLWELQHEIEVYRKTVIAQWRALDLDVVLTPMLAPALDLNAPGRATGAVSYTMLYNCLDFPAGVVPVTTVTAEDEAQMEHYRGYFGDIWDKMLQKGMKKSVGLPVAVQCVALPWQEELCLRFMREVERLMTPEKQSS

[2] = target: Fatty-acid amide hydrolase 1 (Mus musculus) (UniProt O08914); assay: Reversible noncompetitive inhibition of FAAH in mouse brain homogenate using [3Hethanolamine]AEA as substrate incubated for 20 mins prior to dialysis for 18 hrs followed by substrate addition measured after 15 mins; format: tissue-based
[3] = target: T2, Fatty-acid amide hydrolase 1 (Mus musculus, UniProt O08914); assay: Inhibition of FAAH in mouse brain homogenate using [3Hethanolamine]AEA as substrate incubated for 20 mins prior to substrate addition measured after 15 mins by beta counting analysis; format: tissue-based
T2 sequence (O08914 whole entry): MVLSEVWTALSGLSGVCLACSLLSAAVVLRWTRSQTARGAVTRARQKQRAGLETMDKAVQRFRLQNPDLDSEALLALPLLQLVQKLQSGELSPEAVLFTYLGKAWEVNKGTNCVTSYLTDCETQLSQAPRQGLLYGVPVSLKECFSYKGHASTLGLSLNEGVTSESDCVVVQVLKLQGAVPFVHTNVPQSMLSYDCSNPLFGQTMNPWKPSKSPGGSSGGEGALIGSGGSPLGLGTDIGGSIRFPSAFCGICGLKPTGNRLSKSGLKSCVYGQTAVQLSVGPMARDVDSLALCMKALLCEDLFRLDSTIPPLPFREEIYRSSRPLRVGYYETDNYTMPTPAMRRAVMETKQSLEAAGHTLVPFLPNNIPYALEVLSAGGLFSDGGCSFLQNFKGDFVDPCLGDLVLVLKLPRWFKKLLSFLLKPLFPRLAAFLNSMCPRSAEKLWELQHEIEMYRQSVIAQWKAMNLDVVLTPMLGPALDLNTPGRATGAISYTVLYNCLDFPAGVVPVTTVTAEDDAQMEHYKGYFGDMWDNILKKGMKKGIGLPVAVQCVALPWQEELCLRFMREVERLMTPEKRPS

## O=C(NCCCCCCc1ccccc1)Oc1cccc(N2CCNCC2)c1
[1]
  pIC50: 7.36
  pKi: 7.59
[2]
  inhibition: Active
[3]
  pKi: 7.89
